Drawing on publication PMC7038975 (Nucleic Acids Research, 2019), this text covers IC50 for one molecule.

pIC50: −log10 of the molar value.

The target of the assay is dihydropyrimidinase (DHP) (Homo sapiens, UniProt Q14117). Kind of assay: HPLC assay of […],6-dihydrouracil. Type of assay: biochemical.
dihydropyrimidinase (DHP), sequence (Q14117 whole entry): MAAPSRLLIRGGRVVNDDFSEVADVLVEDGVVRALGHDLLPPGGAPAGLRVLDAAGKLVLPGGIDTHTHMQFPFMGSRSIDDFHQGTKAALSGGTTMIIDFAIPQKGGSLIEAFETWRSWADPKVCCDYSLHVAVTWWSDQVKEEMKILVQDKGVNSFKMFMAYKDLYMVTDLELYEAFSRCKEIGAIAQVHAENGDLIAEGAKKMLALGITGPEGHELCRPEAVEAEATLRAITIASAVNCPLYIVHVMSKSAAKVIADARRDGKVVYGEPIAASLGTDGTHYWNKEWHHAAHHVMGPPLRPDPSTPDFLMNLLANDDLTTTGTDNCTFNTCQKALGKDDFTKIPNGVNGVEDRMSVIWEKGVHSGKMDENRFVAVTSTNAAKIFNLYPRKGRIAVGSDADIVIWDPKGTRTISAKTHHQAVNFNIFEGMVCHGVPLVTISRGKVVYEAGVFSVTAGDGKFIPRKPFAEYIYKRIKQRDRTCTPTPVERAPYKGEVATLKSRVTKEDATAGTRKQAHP

In the case of `O=C1c2c(O)cc(O)cc2O[C@H](c2cc(O)c(O)c(O)c2)[C@H]1O` [dihydromyricetin], the pIC50 – broadly, the negative decadic logarithm of the IC50, by convention in mol/L – is about 5.22.
